Results from US20250092014A1, “COMPOUNDS AND METHODS OF ACTIVATING LIPOPROTEIN LIPASE” (Metrea Biosciences, Inc., priority 2021, published 2025).

Key:
[1] = target: T1, LPL (native bovine milk protein) inactivated by ANGPTL4 (Bos taurus, UniProt P11151); assay: LPL ANGPTL4 protection assay (LPL fluorescence assay, resorufin butyrate substrate); format: biochemical; details: LPL activation activity, LPL 2.5 nM, ANGPTL4 20 nM
T1 construct: from tissue; host or cells: bovine milk (LPL); E. coli (GST-ANGPTL4)
T1 sequence (P11151 29-478): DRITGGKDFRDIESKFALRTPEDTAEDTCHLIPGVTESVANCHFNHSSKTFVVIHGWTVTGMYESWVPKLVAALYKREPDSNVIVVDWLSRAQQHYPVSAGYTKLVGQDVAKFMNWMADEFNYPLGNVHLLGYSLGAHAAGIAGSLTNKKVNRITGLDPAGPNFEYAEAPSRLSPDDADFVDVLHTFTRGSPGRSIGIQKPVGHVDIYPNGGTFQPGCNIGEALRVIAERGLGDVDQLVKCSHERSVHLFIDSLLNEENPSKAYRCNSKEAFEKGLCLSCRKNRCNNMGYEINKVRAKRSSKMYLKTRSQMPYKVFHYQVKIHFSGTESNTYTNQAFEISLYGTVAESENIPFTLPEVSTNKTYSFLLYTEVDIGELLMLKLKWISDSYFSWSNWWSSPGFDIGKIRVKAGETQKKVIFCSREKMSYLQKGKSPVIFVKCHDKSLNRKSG
Protocol: LPL is inactivated by angiopoietin-like 4 (ANGPTL4). Compounds of the present disclosure were for activity using the following protection assay. Briefly, the assay was performed in a black opaque 96-well microtiter plate with final volume of 100 μL using a buffer consisting of 50 mM HEPES (pH 7.2), 150 mM NaCl and 0.03% Triton X-100. Compounds were prepared as 10 mM stocks in DMSO, with subsequent serial dilutions performed in DMSO. Two microliters of test compounds were added to the microtiter plate, followed by 49-PL of LPL (native bovine milk protein affinity purified using heparin-affinity chromatography) in assay buffer. The plate contents were mixed using an orbital shaker and allowed to incubate for 5 minutes at room temperature. The enzymatic assay was initiated by the addition of a mixture of 49 μL of 50 μM resorufin butyrate (Santa Cruz #sc-208302; prepared from a 10 mM DMSO stock) and ANGPTL4 (N-terminal GST construct consisting of residues 26-164 expressed in E. coli) in assay buffer. The final concentrations of LPL and ANGPTL4 were 2.5 nM and 20 nM, respectively. The assay was allowed to proceed at 30° C. for 25 minutes with kinetic monitoring (Ex560/Em585) followed by an endpoint reading which was used for analysis.
Data was analyzed in Graphpad Prism (version 6.0, GraphPad Software, Inc., San Diego, CA) using a variable slope four parameter fit of the equation:
Y=Bottom+(Top-Bottom)/(1+10^((Log EC50−X)*HillSlope)),
where X is the concentration of test compound, Y corresponds to the amount of product expressed in relative fluorescence units, and Top and Bottom refer to the plateaus of the curve. Percent activation (protection) of test compound was calculated relative to zero effect wells (ZEW; LPL, ANGPTL4 and substrate) and maximum effect wells (MEW; LPL plus substrate): ((test well−ZEW)/(MEW−ZEW))*100.

C57BL/6 mice = assay: Oral fat tolerance test (postprandial triglyceridaemia after olive oil bolus); format: in vivo; details: overnight-fasted C57BL/6 mice, compound IP 1 h before 10 mL/kg olive oil, bled at 1, 2 and 3.5 h
Protocol: To examine to effects of test compounds on postprandial triglycerdemia, 5-7 week old C57BL/6 mice were fasted overnight (18 hours) on non-nutritive bedding (Alpha-Dri). Following the overnight fast, the mice are bled via retro-orbital sinus (25 μL) using microcapillaries (t-1 hr sample). The LPL activator test compound was then administered intraperitoneally (IP) in a dose volume of 10 ml/kg. One hour later the mice were bled for the t=0 timepoint. The mice were then immediately dosed with a 10 mL/kg oral bolus of olive oil. The mice were subsequently bled at 1-, 2-, and 3.5-hours post-olive oil administration.
Whole blood samples were collected into tubes containing 0.125% EDTA solution in saline. Diluted plasma samples were analyzed for triglyceride levels using Infinity Triglyceride reagent (Thermo) on a microtiter plate. Briefly, 10 μL of diluted sample was added the plate. 200 μL of the reagent was added and the plate was incubated for 10 minutes at 37° C. The plate was then read at 550 nm on a Molecular Devices M5 Spectrophotometer (San Jose, CA). The concentration of triglycerides in the sample was determined using a standard curve made using a dilution of triglyceride standard (Sigma-Aldrich, St. Louis, MO) using the Softmax software from Molecular Devices. All graphing and subsequent area under-the-curve and statistical analysis (Student's t Test) is performed using GraphPad Prism (version 8.0, GraphPad Software, Inc., San Diego, CA).

Structure (SMILES) | EC50 [1] | hypertriglyceridemia response to oral olive oil gavage (plasma triglycerides) (C57BL/6 mice)
CCn1nc(C(=O)Nc2cc(C(=O)Nc3ccccc3CC(=O)NS(C)(=O)=O)ccc2N2CCCCC2)c2ccccc21 [Compound 172, 1-ethyl-N-(5-((2-(2-(methylsulfonamido)-2-oxoethyl)phenyl)carbamoyl)-2-(piperidin-1-yl)phenyl)-1H-indazole-3-carboxamide] | 7.5 µM | blunts hypertriglyceridemia response in a dose-dependent fashion
Cc1ccc(NC(=O)c2cc(NCc3ccc(-c4nnn[nH]4)cc3)ccc2N2CCCCC2)cc1 [Compound 175, 5-((4-(1H-tetrazol-5-yl)benzyl)amino)-2-(piperidin-1-yl)-N-(p-tolyl)benzamide] | 13.4 µM | blunts hypertriglyceridemia response in a dose-dependent fashion
Cc1ccc(NC(=O)c2cc(N3Cc4cc(-c5nnn[nH]5)ccc4C3=O)ccc2N2CCCCC2)cc1 [Compound 170, 5-(1-oxo-5-(1H-tetrazol-5-yl)isoindolin-2-yl)-2-(piperidin-1-yl)-N-(p-tolyl)benzamide] | 7.98 µM | blunts hypertriglyceridemia response in a dose-dependent fashion

Stronger by EC50 [1], values ahead:

EC50 [1] | Structure (SMILES) | hypertriglyceridemia response to oral olive oil gavage (plasma triglycerides) (C57BL/6 mice)
5.85 µM | Cn1c(C(=O)Nc2cc(C(=O)Nc3ccccc3CC(=O)O)ccc2N2CCCCC2)cc2ccccc21 [Compound 173, 2-(2-(3-(1-methyl-1H-indole-2-carboxamido)-4-(piperidin-1-yl)benzamido)phenyl)acetic acid] | blunts hypertriglyceridemia response in a dose-dependent fashion
5.74 µM | Cc1ccc(NC(=O)c2cc(NC(=O)c3ccccc3C(=O)O)ccc2NC2CCCC2)cc1Cl [Compound 176, 2-((3-((3-chloro-4-methylphenyl)carbamoyl)-4-(cyclopentylamino)phenyl)carbamoyl)benzoic acid] | blunts hypertriglyceridemia response in a dose-dependent fashion
3.99 µM | Cn1nc(C(=O)Nc2cc(C(=O)Nc3ccccc3CC(=O)O)ccc2N2CCCCC2)c2ccccc21 [Compound 174, 2-(2-(3-(1-methyl-1H-indazole-3-carboxamido)-4-(piperidin-1-yl)benzamido)phenyl)acetic acid] | blunts hypertriglyceridemia response in a dose-dependent fashion
